{
  "source": "ChEMBL document CHEMBL1126187",
  "about": "“New bronchodilators. 3. Imidazo[4,5-c][1,8]naphthyridin-4(5H)-ones” (J Med Chem, 1992)",
  "key": {"Mus musculus": {"tested_on": "Mus musculus", "test": "Acute lethal toxicity in mice on peroral administration.", "assay_type": "organism-based", "settings": "in vivo, po"}, "[1]": {"target": "Phosphodiesterase 4 (Canis familiaris)", "test": "Inhibition of Canine Tracheal Smooth Muscle PDE 4"}, "Cavia porcellus [2]": {"organism": "Cavia porcellus", "test": "Schultz-Dale (SD) reaction in tracheal strip isolated from passively sensitized guinea pigs", "assay_type": "functional"}, "Cavia porcellus [3]": {"tested_on": "Cavia porcellus", "test": "Mean collapse time in antigen induced bronchospasm in passively sensitized guinea pigs at 10 mg/kg peroral dose", "assay_type": "functional", "settings": "route oral"}, "Cavia porcellus [4]": {"tested_on": "Cavia porcellus", "test": "Mean collapse time in antigen induced bronchospasm in passively sensitized guinea pigs at 50 mg/kg peroral dose", "assay_type": "functional", "settings": "route oral"}, "Cavia porcellus [5]": {"tested_on": "Cavia porcellus", "test": "Mean collapse time in antigen induced bronchospasm in passively sensitized guinea pigs at 5 mg/kg peroral dose", "assay_type": "functional", "settings": "route oral"}, "[6]": {"target": "Phosphodiesterase 4 (Canis familiaris)", "test": "Inhibition of Canine Tracheal Smooth Muscle PDE 4", "remark": "listed apart in the source"}, "Cavia porcellus [7]": {"organism": "Cavia porcellus", "test": "Effect on carbachol induced contraction of guinea pig tracheal strips", "assay_type": "functional", "settings": "Trachea"}, "Cavia porcellus [8]": {"organism": "Cavia porcellus", "test": "Effect on histamine induced contraction of guinea pig tracheal strips", "assay_type": "functional", "settings": "Trachea"}, "Cavia porcellus [9]": {"tested_on": "Cavia porcellus", "test": "Mean collapse time in antigen induced bronchospasm in passively sensitized guinea pigs at 0.50 mg/kg peroral dose", "assay_type": "functional", "settings": "dose 0.5 mg/kg; route oral"}, "Cavia porcellus [10]": {"organism": "Cavia porcellus", "test": "Effect on LTD4 induced contraction of guinea pig tracheal strips", "assay_type": "functional", "settings": "Trachea"}, "Cavia porcellus [11]": {"tested_on": "Cavia porcellus", "test": "Mean collapse time in antigen induced bronchospasm in passively sensitized guinea pigs at 0.1 mg/kg peroral dose", "assay_type": "functional", "settings": "route oral"}, "Cavia porcellus [12]": {"tested_on": "Cavia porcellus", "test": "Mean collapse time in antigen induced bronchospasm in passively sensitized guinea pigs at 1 mg/kg peroral dose", "assay_type": "functional", "settings": "route oral"}, "Cavia porcellus [13]": {"tested_on": "Cavia porcellus", "test": "Mean collapse time in antigen induced bronchospasm in passively sensitized guinea pigs at 25 mg/kg peroral dose", "assay_type": "functional", "settings": "route oral"}},
  "note": "pIC50: −log10 of the molar value.",
  "data": [
    {"smiles": "CCCCn1c(=O)c2c(ncn2C)c2cccnc21", "values": [
      {"measurement": "MLD", "setting": "Mus musculus", "result": 200, "unit": "mg/kg"},
      {"measurement": "IC50", "setting": "[1]", "result": 3.6, "unit": "µM"},
      {"measurement": "pIC50", "setting": "Cavia porcellus [2]", "result": 5.45},
      {"measurement": "MCT", "setting": "Cavia porcellus [3]", "result": 215, "unit": "s"}
    ]},
    {"smiles": "Oc1c2ncnc-2c2cccnc2n1-c1cccc(Cl)c1", "values": [
      {"measurement": "pIC50", "setting": "Cavia porcellus [2]", "result": "< 4.52"}
    ]},
    {"smiles": "CCOC(=O)c1cccc(-n2c(O)c3ncnc-3c3cccnc32)c1", "values": [
      {"measurement": "pIC50", "setting": "Cavia porcellus [2]", "result": "< 4.52"}
    ]},
    {"smiles": "CC(C)n1cnc2c3cccnc3n(-c3ccccc3)c(=O)c21", "values": [
      {"measurement": "MLD", "setting": "Mus musculus", "result": 200, "unit": "mg/kg"},
      {"measurement": "IC50", "setting": "[1]", "result": 2.5, "unit": "µM"},
      {"measurement": "pIC50", "setting": "Cavia porcellus [2]", "result": 5.30}
    ]},
    {"smiles": "CCCCn1c(O)c2ncnc-2c2cccnc21", "values": [
      {"measurement": "pIC50", "setting": "Cavia porcellus [2]", "result": "< 4.52"}
    ]},
    {"smiles": "Cc1cccc(-n2c(O)c3ncnc-3c3cccnc32)c1", "values": [
      {"measurement": "pIC50", "setting": "Cavia porcellus [2]", "result": "< 4.52"}
    ]},
    {"smiles": "Cn1cnc2c(=O)n(-c3ccccc3)c3ncccc3c21", "values": [
      {"measurement": "pIC50", "setting": "Cavia porcellus [2]", "result": "< 4.52"}
    ]},
    {"smiles": "Oc1c2nnnc-2c2cccnc2n1-c1ccccc1", "values": [
      {"measurement": "pIC50", "setting": "Cavia porcellus [2]", "result": "< 4.52"}
    ]},
    {"smiles": "O=c1c2c(ncn2CCCN2CCOCC2)c2cccnc2n1-c1ccccc1", "values": [
      {"measurement": "pIC50", "setting": "Cavia porcellus [2]", "result": "< 4.52"}
    ]},
    {"smiles": "Oc1c2nc(-c3ccccc3)nc-2c2cccnc2n1-c1ccccc1", "values": [
      {"measurement": "pIC50", "setting": "Cavia porcellus [2]", "result": "< 4.52"}
    ]},
    {"smiles": "Cn1cnc2c3cccnc3n(-c3ccccc3)c(=O)c21", "values": [
      {"measurement": "MLD", "setting": "Mus musculus", "result": 100, "unit": "mg/kg"},
      {"measurement": "IC50", "setting": "[1]", "result": 6.6, "unit": "µM"},
      {"measurement": "pIC50", "setting": "Cavia porcellus [2]", "result": 6.66},
      {"measurement": "MCT", "setting": "Cavia porcellus [3]", "result": 543, "unit": "s"}
    ]},
    {"smiles": "CCCn1cnc2c3cccnc3n(-c3ccccc3)c(=O)c21", "values": [
      {"measurement": "MLD", "setting": "Mus musculus", "result": 200, "unit": "mg/kg"},
      {"measurement": "IC50", "setting": "[1]", "result": 0.52, "unit": "µM"},
      {"measurement": "pIC50", "setting": "Cavia porcellus [2]", "result": 5.08},
      {"measurement": "MCT", "setting": "Cavia porcellus [3]", "result": 505, "unit": "s"}
    ]},
    {"smiles": "Cc1ccc(-n2c(O)c3ncnc-3c3cccnc32)cc1", "values": [
      {"measurement": "pIC50", "setting": "Cavia porcellus [2]", "result": "< 4.52"}
    ]},
    {"smiles": "CCCCCCn1cnc2c3cccnc3n(-c3ccccc3)c(=O)c21", "values": [
      {"measurement": "pIC50", "setting": "Cavia porcellus [2]", "result": "< 4.52"}
    ]},
    {"smiles": "Oc1c2ncnc-2c2cccnc2n1-c1ccccc1", "values": [
      {"measurement": "MCT", "setting": "Cavia porcellus [4]", "result": 491, "unit": "s"},
      {"measurement": "MCT", "setting": "Cavia porcellus [5]", "result": 483, "unit": "s"},
      {"measurement": "MLD", "setting": "Mus musculus", "result": "> 300", "unit": "mg/kg"},
      {"measurement": "IC50", "setting": "[6]", "result": 12, "unit": "µM"},
      {"measurement": "pIC50", "setting": "Cavia porcellus [7]", "result": 4.99},
      {"measurement": "pIC50", "setting": "Cavia porcellus [8]", "result": 5.24},
      {"measurement": "pIC50", "setting": "Cavia porcellus [2]", "result": 5.66},
      {"measurement": "MCT", "setting": "Cavia porcellus [9]", "result": 410, "unit": "s"},
      {"measurement": "pIC50", "setting": "Cavia porcellus [10]", "result": 5.52},
      {"measurement": "MCT", "setting": "Cavia porcellus [11]", "result": 301, "unit": "s"},
      {"measurement": "MCT", "setting": "Cavia porcellus [3]", "result": 457, "unit": "s"},
      {"measurement": "MCT", "setting": "Cavia porcellus [12]", "result": 397, "unit": "s"}
    ]},
    {"smiles": "CCN(CC)CCCn1cnc2c3cccnc3n(-c3ccccc3)c(=O)c21", "values": [
      {"measurement": "pIC50", "setting": "Cavia porcellus [2]", "result": "< 4.52"}
    ]},
    {"smiles": "COc1ccc(C2CNC(=O)C2)cc1OC1CCCC1", "note": "(stereo not given) [ROLIPRAM]", "values": [
      {"measurement": "pIC50", "setting": "Cavia porcellus [2]", "result": 6.47}
    ]},
    {"smiles": "Cc1nc2c(O)n(-c3ccccc3)c3ncccc3c-2n1", "values": [
      {"measurement": "pIC50", "setting": "Cavia porcellus [2]", "result": "< 4.52"}
    ]},
    {"smiles": "Cn1c(=O)c2nc[nH]c2n(C)c1=O.O", "note": "[THEOPHYLLINE]", "values": [
      {"measurement": "MCT", "setting": "Cavia porcellus [4]", "result": 414, "unit": "s"},
      {"measurement": "MCT", "setting": "Cavia porcellus [3]", "result": 343, "unit": "s"},
      {"measurement": "MCT", "setting": "Cavia porcellus [13]", "result": 389, "unit": "s"}
    ]},
    {"smiles": "CC(C)n1cnc2c(=O)n(-c3ccccc3)c3ncccc3c21", "values": [
      {"measurement": "pIC50", "setting": "Cavia porcellus [2]", "result": "< 4.52"}
    ]},
    {"smiles": "COc1ccc(-n2c(O)c3ncnc-3c3cccnc32)cc1", "values": [
      {"measurement": "pIC50", "setting": "Cavia porcellus [2]", "result": "< 4.52"}
    ]},
    {"smiles": "Oc1c2ncnc-2c2ccccc2n1-c1ccccc1", "values": [
      {"measurement": "pIC50", "setting": "Cavia porcellus [2]", "result": "< 4.52"}
    ]},
    {"smiles": "O=C(O)Cn1cnc2c3cccnc3n(-c3ccccc3)c(=O)c21", "values": [
      {"measurement": "pIC50", "setting": "Cavia porcellus [2]", "result": "< 4.52"}
    ]},
    {"smiles": "CCCCn1c(=O)c2ncn(C)c2c2cccnc21", "values": [
      {"measurement": "MLD", "setting": "Mus musculus", "result": 300, "unit": "mg/kg"},
      {"measurement": "pIC50", "setting": "Cavia porcellus [2]", "result": 4.89},
      {"measurement": "MCT", "setting": "Cavia porcellus [3]", "result": 335, "unit": "s"}
    ]},
    {"smiles": "CCn1cnc2c3cccnc3n(-c3ccccc3)c(=O)c21", "values": [
      {"measurement": "MLD", "setting": "Mus musculus", "result": 100, "unit": "mg/kg"},
      {"measurement": "IC50", "setting": "[1]", "result": 2, "unit": "µM"},
      {"measurement": "pIC50", "setting": "Cavia porcellus [2]", "result": 6.33}
    ]},
    {"smiles": "CCCCn1cnc2c3cccnc3n(-c3ccccc3)c(=O)c21", "values": [
      {"measurement": "pIC50", "setting": "Cavia porcellus [2]", "result": "< 4.52"}
    ]},
    {"smiles": "COc1cccc(-n2c(O)c3ncnc-3c3cccnc32)c1", "values": [
      {"measurement": "pIC50", "setting": "Cavia porcellus [2]", "result": "< 4.52"}
    ]},
    {"smiles": "CC(C)Cn1cnc2c3cccnc3n(-c3ccccc3)c(=O)c21", "values": [
      {"measurement": "MLD", "setting": "Mus musculus", "result": 300, "unit": "mg/kg"},
      {"measurement": "IC50", "setting": "[1]", "result": 0.15, "unit": "µM"},
      {"measurement": "pIC50", "setting": "Cavia porcellus [2]", "result": 5.17},
      {"measurement": "MCT", "setting": "Cavia porcellus [3]", "result": 551, "unit": "s"}
    ]},
    {"smiles": "CCOC(=O)c1ccc(-n2c(O)c3ncnc-3c3cccnc32)cc1", "values": [
      {"measurement": "pIC50", "setting": "Cavia porcellus [2]", "result": "< 4.52"}
    ]}
  ]
}
